From ChEMBL document CHEMBL2203009, “Synthesis of isoindole and benzoisoindole derivatives of teicoplanin pseudoaglycon with remarkable antibacterial and antiviral activities” (Bioorg Med Chem Lett, 2012) come the findings set out here.

One data set concerns H3N2 subtype. As to the kind of experiment: Antiviral activity against Influenza A virus (A/Hong Kong/7/1987(H3N2)) […] infected in MDCK cells assessed as inhibition of virus-induced cytopathic effect. It counts as functional, organism-based. For orientation: Damage to the host cells serves as the signal in cytopathic effect assays.
The nature of data set [1]: Toxicity in HEL cells assessed as induction of cell morphology changes. Type of data set: cell-based. The following applies: human.
Data set [2] has as its system Staphylococcus aureus. As to the kind of experiment: Antimicrobial activity against methicillin-resistant Staphylococcus aureus ATCC 33591. Type of data set: functional.
Another data set deals with Influenza B virus. As to the kind of experiment: Antiviral activity against Influenza B virus (B/Hong Kong/05/1972) […] infected in MDCK cells assessed as inhibition of virus-induced cytopathic effect. It counts as functional, cell-based. The settings on record: B/Hong Kong/05/1972, MDCK.
In data set [3] the test system is Human alphaherpesvirus 1. As to the kind of experiment: Antiviral activity against thymidine kinase deficient and acyclovir-resistant HSV1 KOS infected in HEL cells assessed as inhibition of virus-induced cytopathic effect. The settings on record: Human alphaherpesvirus 1, KOS. Type of data set: functional, organism-based.
The test system of data set [4] is Enterococcus faecalis. As to the kind of experiment: Antimicrobial activity against Enterococcus faecalis ATCC 29212. It counts as functional.
In data set [5] the test system is Vesicular stomatitis virus. As to the kind of experiment: Antiviral activity against Vesicular stomatitis virus infected in HEL cells assessed as inhibition of virus-induced cytopathic effect. Type of data set: functional, organism-based.
Data set [6] relates to Human alphaherpesvirus 1. As to the kind of experiment: Antiviral activity against HSV1 KOS infected in HEL cells assessed as inhibition of virus-induced cytopathic effect. It counts as functional, organism-based. The following applies: Human alphaherpesvirus 1, KOS.
Data set [7] deals with Enterococcus faecalis. As to the kind of experiment: Antimicrobial activity against Enterococcus faecalis ATCC 51299 over-expressing vanB. It counts as functional.
For data set [8], the system named is Staphylococcus aureus. As to the kind of experiment: Antimicrobial activity against methicillin-sensitive Staphylococcus aureus ATCC 29213. Type of data set: functional.
For data set [9], the system named is Staphylococcus epidermidis. As to the kind of experiment: Antimicrobial activity against Staphylococcus epidermidis over-expressing MecA. Type of data set: functional.
For another data set, the system named is Vaccinia virus. As to the kind of experiment: Antiviral activity against Vaccinia virus infected in HEL cells assessed as inhibition of virus-induced cytopathic effect. Type of data set: functional, organism-based. The following applies: Orthopoxvirus vaccinia.
The subject of data set [10] is Enterococcus faecalis. As to the kind of experiment: Antimicrobial activity against Enterococcus faecalis 15376 over-expressing vanA. Type of data set: functional.
Data set [11] relates to Staphylococcus epidermidis. As to the kind of experiment: Antimicrobial activity against Staphylococcus epidermidis ATCC 35984 biofilms. Type of data set: functional.
Data set [12] can be described thus: Toxicity in MDCK cells assessed as induction of cell morphology changes. Type of data set: cell-based, Canis lupus familiaris. The following applies: dog.
The next data set deals with Influenza A virus. As to the kind of experiment: Antiviral activity against Influenza A virus (A/Puerto Rico/8/1934(H1N1)) H1N1 infected in MDCK cells assessed as inhibition of virus-induced cytopathic effect. It counts as functional, organism-based.
Another data set deals with Human alphaherpesvirus 2. As to the kind of experiment: Antiviral activity against HSV2 G infected in HEL cells assessed as inhibition of virus-induced cytopathic effect. The following applies: Human alphaherpesvirus 2, strain G. It counts as functional, organism-based.
The next data set concerns Bacillus subtilis. As to the kind of experiment: Antimicrobial activity against Bacillus subtilis ATCC 6633. Type of data set: functional.

≈ marks a conversion by molar mass, not a printed value.

For `CC(=O)N[C@H]1[C@H](O[C@@H]2c3ccc(c(Cl)c3)Oc3cc4cc(c3O)Oc3ccc(cc3Cl)C[C@H]3NC(=O)[C@H](n5cc6cc7ccccc7cc6c5Sc5ncccn5)c5ccc(O)c(c5)Oc5cc(O)cc(c5)[C@H](NC3=O)C(=O)N[C@H]4C(=O)N[C@H]3C(=O)N[C@@H]2C(=O)N[C@H](C(=O)O)c2cc(O)cc(O)c2-c2cc3ccc2O)O[C@H](CO)[C@@H](O)[C@@H]1O`, the EC50 in the data set with H3N2 subtype is 0.54 µM; with Influenza B virus it was > 50 µM; in the data set with Human alphaherpesvirus 1 [3] it was 45 µM; in data set [5], > 100 µM; in the data set with Human alphaherpesvirus 1 [6] it was 40 µM; with Vaccinia virus, 10 µM. Also, the EC50 was 0.54 µM in the data set on Influenza A virus and 27 µM in the data set on Human alphaherpesvirus 2. Moreover, the MCC was ≥ 100 µM in [1] and 13 µM in data set [12]. The MBC against Staphylococcus aureus [2] came out at 0.5 mg/L (≈ 0.301 µM); with Enterococcus faecalis [4], 256 mg/L (≈ 154 µM); with Enterococcus faecalis [7] it was 256 mg/L (≈ 154 µM); against Staphylococcus aureus [8], 0.5 mg/L (≈ 0.301 µM); in [9], 256 mg/L (≈ 154 µM); against Enterococcus faecalis [10], 256 mg/L (≈ 154 µM). For the same molecule, the MBC in [11] is 0.5 mg/L (≈ 0.301 µM); with Bacillus subtilis, 2 mg/L (≈ 1.2 µM). The MIC against Staphylococcus aureus [2] was 0.015 mg/L (≈ 0.00902 µM); against Enterococcus faecalis [4], 0.015 mg/L (≈ 0.00902 µM); against Enterococcus faecalis [7], 1 mg/L (≈ 0.602 µM); in the data set on Staphylococcus aureus [8] it was 0.015 mg/L (≈ 0.00902 µM); in [9] it was 0.015 mg/L (≈ 0.00902 µM); against Enterococcus faecalis [10], 0.5 mg/L (≈ 0.301 µM). Besides, the MIC worked out at 0.015 mg/L (≈ 0.00902 µM) in [11] and 0.0313 mg/L (≈ 0.0188 µM) with Bacillus subtilis.

For the molecule `Nc1ccn(C[C@@H](CO)OCP(=O)(O)O)c(=O)n1` [CIDOFOVIR], the MCC in [1] was > 250 µM. Further, the EC50 in the data set on Human alphaherpesvirus 1 [3] is 1.5 µM; in data set [5], > 250 µM; with Human alphaherpesvirus 1 [6], 1.5 µM; with Vaccinia virus, 21 µM; in the data set on Human alphaherpesvirus 2, 0.9 µM.

Take `CC(=O)N[C@H]1[C@H](O[C@@H]2c3ccc(c(Cl)c3)Oc3cc4cc(c3O)Oc3ccc(cc3Cl)C[C@H]3NC(=O)[C@H](n5cc6ccccc6c5S[C@@H]5O[C@H](COC(C)=O)[C@@H](OC(C)=O)[C@H](OC(C)=O)[C@H]5OC(C)=O)c5ccc(O)c(c5)Oc5cc(O)cc(c5)[C@H](NC3=O)C(=O)N[C@H]4C(=O)N[C@H]3C(=O)N[C@@H]2C(=O)N[C@H](C(=O)O)c2cc(O)cc(O)c2-c2cc3ccc2O)O[C@H](CO)[C@@H](O)[C@@H]1O`: the EC50 with H3N2 subtype is > 100 µM; in the data set on Influenza B virus, > 100 µM; in the data set with Human alphaherpesvirus 1 [3] it was 40 µM; in data set [5] it was 48 µM; in the data set with Human alphaherpesvirus 1 [6], 40 µM; with Vaccinia virus, 45 µM. Further, the EC50 was > 100 µM in the data set on Influenza A virus and 11 µM in the data set on Human alphaherpesvirus 2. For the same molecule, the MCC in [1] is ≥ 100 µM; in data set [12], 20 µM. Also, the MBC against Staphylococcus aureus [2] was 128 mg/L (≈ 68.6 µM); against Enterococcus faecalis [4], 256 mg/L (≈ 137 µM); against Enterococcus faecalis [7] it was 256 mg/L (≈ 137 µM); with Staphylococcus aureus [8], 16 mg/L (≈ 8.58 µM); in data set [9], 256 mg/L (≈ 137 µM); against Enterococcus faecalis [10] it was 256 mg/L (≈ 137 µM). The MBC in data set [11] was determined as 8 mg/L (≈ 4.29 µM); against Bacillus subtilis it was 64 mg/L (≈ 34.3 µM). Also, the MIC against Staphylococcus aureus [2] was 0.0313 mg/L (≈ 0.0168 µM); with Enterococcus faecalis [4], 1 mg/L (≈ 0.536 µM); against Enterococcus faecalis [7] it was 4 mg/L (≈ 2.15 µM); with Staphylococcus aureus [8] it was 0.0625 mg/L (≈ 0.0335 µM); in data set [9], 2 mg/L (≈ 1.07 µM); against Enterococcus faecalis [10] it was 4 mg/L (≈ 2.15 µM). Moreover, the results for the MIC (in data set [11]; in the data set on Bacillus subtilis) were 2 mg/L (≈ 1.07 µM) and 0.25 mg/L (≈ 0.134 µM), respectively.

With `CC(=O)N[C@H]1[C@H](O[C@@H]2c3ccc(c(Cl)c3)Oc3cc4cc(c3O)Oc3ccc(cc3Cl)C[C@H]3NC(=O)[C@H](N)c5ccc(O)c(c5)Oc5cc(O)cc(c5)[C@H](NC3=O)C(=O)N[C@H]4C(=O)N[C@H]3C(=O)N[C@@H]2C(=O)N[C@H](C(=O)O)c2cc(O)cc(O)c2-c2cc3ccc2O)O[C@H](CO)[C@@H](O)[C@@H]1O`, the EC50 in the data set with H3N2 subtype is 17 µM; with Influenza B virus, > 100 µM; in the data set with Human alphaherpesvirus 1 [3], > 100 µM; in data set [5], > 100 µM; with Human alphaherpesvirus 1 [6], > 100 µM; in the data set with Vaccinia virus it was > 100 µM. For the same molecule, the EC50 with Influenza A virus is 23 µM; in the data set with Human alphaherpesvirus 2, > 100 µM. Moreover, the MCC was > 100 µM in data set [1] and ≥ 100 µM in data set [12].

Regarding `CC(=O)N[C@@H]1[C@H](Oc2c3cc4cc2Oc2ccc(cc2Cl)[C@@H](O[C@@H]2O[C@@H](CO)[C@@H](O)[C@H](O)[C@@H]2NC(C)=O)[C@@H]2NC(=O)[C@H](NC(=O)[C@@H]4NC(=O)[C@H]4NC(=O)[C@@H](Cc5ccc(c(Cl)c5)O3)NC(=O)[C@H](N)c3ccc(O)c(c3)Oc3cc(O)cc4c3)c3ccc(O)c(c3)-c3c(O[C@H]4O[C@H](CO)[C@@H](O)[C@@H](O)[C@@H]4O)cc(O)cc3[C@@H](C(=O)O)NC2=O)O[C@@H](CO)[C@@H](O)[C@@H]1O`, the MBC in the data set with Staphylococcus aureus [2] is 2 mg/L (≈ 1.13 µM); against Enterococcus faecalis [4], 64 mg/L (≈ 36.2 µM); against Enterococcus faecalis [7], 256 mg/L (≈ 145 µM); in the data set with Staphylococcus aureus [8], 2 mg/L (≈ 1.13 µM); in data set [9] it was 32 mg/L (≈ 18.1 µM); in the data set with Enterococcus faecalis [10], 256 mg/L (≈ 145 µM). Also, the MBC (in data set [11]; in the data set with Bacillus subtilis) was 16 mg/L (≈ 9.05 µM) each time. For the same molecule, the MIC against Staphylococcus aureus [2] was 0.5 mg/L (≈ 0.283 µM); in the data set on Enterococcus faecalis [4] it was 2 mg/L (≈ 1.13 µM); against Enterococcus faecalis [7], 4 mg/L (≈ 2.26 µM); with Staphylococcus aureus [8] it was 0.5 mg/L (≈ 0.283 µM); in data set [9], 8 mg/L (≈ 4.53 µM); in the data set with Enterococcus faecalis [10] it was 256 mg/L (≈ 145 µM). In addition, the values for the MIC (in data set [11]; in the data set on Bacillus subtilis) were 2 mg/L (≈ 1.13 µM) and 0.5 mg/L (≈ 0.283 µM), respectively.

For the molecule `Nc1nc2c(ncn2COCCO)c(=O)[nH]1` [ACYCLOVIR], the MCC in [1] was > 250 µM. Besides, the EC50 in the data set on Human alphaherpesvirus 1 [3] was 44 µM; in data set [5], > 250 µM; with Human alphaherpesvirus 1 [6], 0.14 µM; in the data set with Vaccinia virus, ≥ 250 µM; in the data set with Human alphaherpesvirus 2, 0.14 µM.

For `O=c1[nH]c(=O)n([C@H]2C[C@H](O)[C@@H](CO)O2)cc1/C=C/Br` [BRIVUDINE], the MCC in data set [1] is > 250 µM. Further, the EC50 in the data set on Human alphaherpesvirus 1 [3] was 50 µM; in data set [5] it was > 250 µM; in the data set with Human alphaherpesvirus 1 [6] it was 0.024 µM; in the data set on Vaccinia virus it was 10 µM; in the data set with Human alphaherpesvirus 2 it was 198 µM.

As for `CC(N)C12CC3CC(CC(C3)C1)C2` (stereo unspecified) [RIMANTADINE], the EC50 with H3N2 subtype was 0.051 µM; with Influenza B virus it was > 500 µM; in the data set with Influenza A virus it was 14 µM.

Regarding `NC(=O)c1ncn([C@@H]2O[C@H](CO)[C@@H](O)[C@H]2O)n1` [RIBAVIRIN], the EC50 in the data set with H3N2 subtype is 6 µM; in the data set with Influenza B virus it was 4.6 µM; in the data set with Influenza A virus, 6.1 µM.

In the case of `CC(=O)N[C@H]1[C@H]([C@H](O)[C@H](O)CO)OC(C(=O)O)=C[C@@H]1NC(=N)N` [ZANAMIVIR], the EC50 came out at 4.8 µM with H3N2 subtype, 23 µM in the data set with Influenza B virus and 1.6 µM in the data set with Influenza A virus. For the same molecule, the MCC in data set [12] is > 100 µM.

As to `Nc1nc2c(ncn2COC(CO)CO)c(=O)[nH]1` [GANCICLOVIR], in data set [1], the MCC was > 100 µM. Further, the EC50 was 4 µM in the data set on Human alphaherpesvirus 1 [3]; > 100 µM in data set [5]; 0.015 µM in the data set with Human alphaherpesvirus 1 [6]; > 100 µM in the data set with Vaccinia virus; 0.013 µM in the data set with Human alphaherpesvirus 2.

For `NC12CC3CC(CC(C3)C1)C2` [AMANTADINE], the EC50 is 0.45 µM with H3N2 subtype, > 500 µM with Influenza B virus and 212 µM with Influenza A virus. For the same molecule, the MCC in data set [12] was ≥ 500 µM.

As usually defined, the EC50 is the concentration at which the effect is half-maximal.
